Laboratory results reported in patent US20100267803A1, “Regulators Of Fat Metabolism As Anti-Cancer Targets” (The Research Foundation of State University Of New York, priority 2008, published 2010).

Columns and labels:
Format in all cases: cell-based, human
[1] = tested on: aP2 (FABP4) mRNA; experiment: qRT-PCR of aP2 mRNA in BT474 cells; conditions: 20 μM GW9662 for 48 h
Procedure: (§1) FIG. 3 PPAR. inhibition impacts NR1D1 expression and ERBB2-positive cells viability. (a) Cell counts of BT474, MDA-MB-361, MCF-7 and HMEC cells treated with vehicle, 10 and 20 μM of the PPAR. antagonist GW9662 for 72 hrs. Results represented as % of control (vehicle). (Error bars are s.d from 3 individual experiments; *P>0.2, **P<0.05, ***P<0.002). (b) BT474 cells treated with vehicle or 20 μM of GW9662 for 48 h were immuno-stained for cleaved Caspase-3. (c) Quantification of Caspase-3 signal. (Error bars are s.d from 3 individual experiments; ***P=0.002). (d) aP2 and NR1D1 mRNA levels of BT474 cells treated with vehicle (control) and 20 μM of GW9662 for 48 h, analyzed by qRT-PCRs. (Error bars are s.d from 3 experiments; ***P<0.0006. (e) BMAL1-luc activity of BT474 cells treated with vehicle or 20 μM of GW9662 for 48 h. (Error bars are s.d from 3 individual experiments; **P=0.03). (f) Total ERBB2 western blot of BT474 cells treated with vehicle or 20 μM GW9662 for 72h. GAPDH was used as control.
(§2) Cell viability—apoptosis assays. […] At least 30 fields were imaged per single experiment. […] Immunoblotting. […] PCR reaction was run using standard conditions.

[2] = tested on: BT474, MDA-MB-361, MCF-7 and HMEC cells; experiment: Cell counts after PPARγ antagonist treatment; conditions: 10 and 20 μM for 72 hrs; % of vehicle
Procedure: as §1, §2

[3] = tested on: FADS2 mRNA; experiment: qRT-PCR of FADS2 mRNA in BT474 cells; conditions: shRNA or 20 μM GW9662 for 48 h
Procedure: (§3) FIG. 4 NR1D1 and PBP coordinate fatty acid metabolism in breast cancer cells. (a) BT474, MDA-MB-361, MCF-7 and HMEC cells were stained with Oil-Red O lipid and hematoxylin nuclear stains. (b) Fat stores were quantified by BODIPY 493/503 lipid probe staining (Error bars are s.d from 3 individual experiments). (c) FASN, ACLY, ACACA and FADS2 mRNA levels of BT474 cells treated with luciferase (control), PBP or NR1D1 shRNAs, or with vehicle and 20 μM of GW9662 for 48 h, analyzed by qRT-PCRs. (Error bars are s.d from 3 experiments; ***P<0.001, **P=0.005) (d) BT474 cells were transfected with FASN, ACLY and ACACA shRNAs and co-transfected with GFP. Transfected cells were counted at 24 h and 72 h and the 72h-to-24 h ratio for each shRNA was calculated and expressed as % of the control shRNA (luciferase). (Error bars are s.d from 3 individual experiments; **P<0.01, ***P<0.002). (e) BODIPY images and (f) quantification of BT474 cells transfected with luciferase (control), PBP or NR1D1 shRNAs and co-transfected with DsRed (Error bars are s.d from 3 individual experiments; ***P<0.03). Arrows indicate transfected cells.
as §2

[4] = tested on: BT474 cells; experiment: Apoptosis by cleaved Caspase-3 or activated Bax immunofluorescence; conditions: 48 h of shRNA or 20 μM GW9662
Procedure: Results are shown as percentage of control. (**P=0.03). (c) BT474 cells were transfected with luciferase (control), PBP and NR1D1 shRNAs and co-transfected with GFP. Green cells were counted at intervals and expressed as percentage of control. (Error bars are s.d from 3 individual experiments; *P<0.08, **P<0.03, ***P<0.005). (d) BT474 cells were transfected with luciferase (control), PBP or NR shRNAs for 48 h. Immunofluorescence was performed for cleaved Caspase-3 signal; cell nuclei were stained with Hoechst 33243. (e) Cells from […] were counted for cleaved Caspase-3 signal. (Error bars are s.d from 3 individual experiments; ***P<0.0003). (f) BT474 cells were transfected with luciferase (control) PBP, NR1D1 or PBP and NR1D1 shRNAs together and co-transfected with GFP. Transfected cells were counted at 24 h and 72 h and the 72 h-to-24 h ratio for each shRNA was calculated and expressed as % of the control shRNA (luciferase). (Error bars are s.d from 3 individual experiments; **P=0.01, ***P<0.002). (g) Cells from (f) were counted for cleaved Caspase-3 signal. (Error bars are s.d from 3 individual experiments; ***P<0.0001). (h) ERBB2 mRNA levels of BT474 cells transfected with luciferase (control), PBP or NR1D1 shRNAs for 48 h, analyzed by qRT-PCRs. (Error bars are s.d from 3 individual experiments; ***P=0.0001).
FIG. 3 PPAR. inhibition impacts NR1D1 expression and ERBB2-positive cells viability. (a) Cell counts of BT474, MDA-MB-361, MCF-7 and HMEC cells treated with vehicle, 10 and 20 μM of the PPAR. antagonist GW9662 for 72 hrs. Results represented as % of control (vehicle). (Error bars are s.d from 3 individual experiments; *P>0.2, **P<0.05, ***P<0.002). […] (c) Quantification of Caspase-3 signal. […] (d) aP2 and NR1D1 mRNA levels of BT474 cells treated with vehicle (control) and 20 μM of GW9662 for 48 h, analyzed by qRT-PCRs. […]
FIG. 5. (a) MDH1 and ME1 mRNA levels of BT474 cells treated with luciferase (control), PBP or NR1D1 shRNAs for 48 h, analyzed by qRT-PCRs. […] (d) Quantification of cleaved Caspase-3 signal from cells in (c). […]

[5] = tested on: ERBB2; experiment: ERBB2 western blot of BT474 cells
Procedure: as §1, §2

[6] = tested on: ACLY mRNA; experiment: qRT-PCR of ACLY mRNA in BT474 cells; conditions: shRNA or 20 μM GW9662 for 48 h
Procedure: as §3, §2

[7] = tested on: BMAL1 reporter; experiment: BMAL1 luciferase reporter assay in BT474 cells; conditions: 20 μM GW9662 for 48 h
Procedure: (§4) FIG. 2 NR1D1 and PBP are necessary for survival of ERBB2-positive cells. (a) PBP and NR1D1 mRNA levels of BT474 cells transfected with luciferase (control), PBP or NR1D1 shRNAs for 48 h, analyzed by qRT-PCRs. (Error bars are s.d from 3 experiments; ***P<0.003, **P=0.01, *P=0.02). (b) BMAL1 luciferase reporter activity of BT474 cells transfected with either empty vector (control), or NR1D1 shRNA for 48 h.
FIG. 3 PPAR. inhibition impacts NR1D1 expression and ERBB2-positive cells viability. (a) Cell counts of BT474, MDA-MB-361, MCF-7 and HMEC cells treated with vehicle, 10 and 20 μM of the PPAR. antagonist GW9662 for 72 hrs. Results represented as % of control (vehicle). (Error bars are s.d from 3 individual experiments; *P>0.2, **P<0.05, ***P<0.002). (b) BT474 cells treated with vehicle or 20 μM of GW9662 for 48 h were immuno-stained for cleaved Caspase-3. (c) Quantification of Caspase-3 signal. […] (d) aP2 and NR1D1 mRNA levels of BT474 cells treated with vehicle (control) and 20 μM of GW9662 for 48 h, analyzed by qRT-PCRs. […]
Reporter assays. […] Cells were lysed 48 h post-transfection and firefly (reporter) and renilla luciferase activities were measured using the Dual-Luciferase Reporter Assay kit (Promega) on a BioTek Synergy HT reader. The ratio of Firefly to Renilla luciferase activity was calculated and presented as percentage of control.

[8] = tested on: ACACA mRNA; experiment: qRT-PCR of ACACA mRNA in BT474 cells; conditions: shRNA or 20 μM GW9662 for 48 h
Procedure: as §3, §2

[9] = tested on: NR1D1 mRNA; experiment: qRT-PCR of NR1D1 mRNA in BT474 cells; conditions: 20 μM GW9662 for 48 h
Procedure: as §4
FIG. 3 PPAR. inhibition impacts NR1D1 expression and ERBB2-positive cells viability. (a) Cell counts of BT474, MDA-MB-361, MCF-7 and HMEC cells treated with vehicle, 10 and 20 μM of the PPAR. antagonist GW9662 for 72 hrs. Results represented as % of control (vehicle). (Error bars are s.d from 3 individual experiments; *P>0.2, **P<0.05, ***P<0.002). (b) BT474 cells treated with vehicle or 20 μM of GW9662 for 48 h were immuno-stained for cleaved Caspase-3. (c) Quantification of Caspase-3 signal. (Error bars are s.d from 3 individual experiments; ***P=0.002). (d) aP2 and NR1D1 mRNA levels of BT474 cells treated with vehicle (control) and 20 μM of GW9662 for 48 h, analyzed by qRT-PCRs. […]

[10] = tested on: FASN mRNA; experiment: qRT-PCR of FASN mRNA in BT474 cells; conditions: shRNA or 20 μM GW9662 for 48 h
Procedure: as §3, §2

SMILES: O=C(Nc1ccccc1)c1cc([N+](=O)[O-])ccc1Cl [GW9662, reference compound]
- mRNA levels of aP2 [1]: decreased mRNA levels of aP2
- sensitivity of cells to drug treatment (cell counts) [2]: ERBB2-positive cells were more sensitive to drug treatment than MCF-7 and HMEC cells
- FADS2 transcript levels [3]: downregulated
- apoptosis [4]: apoptosis of BT474 cells
- ERBB2 protein levels ([5]; 20 μM GW9662 for 72h): Neither ERBB2 protein levels (FIG. 3f), nor ERBB2 phosphorylation (FIG. S3d) were significantly affected
- ERBB2 phosphorylation ([5]; GW9662 treatment): Neither ERBB2 protein levels (FIG. 3f), nor ERBB2 phosphorylation (FIG. S3d) were significantly affected
- ACLY transcript level [6]: reduced
- BMAL1 reporter activity [7]: increased BMAL1 reporter activity
- ACACA transcript level [8]: reduced
- NR1D1 message levels [9]: dramatically decreased
- FASN transcript level [10]: reduced
